The test system of one data set is WSN-PB2-Nanoluc virus. Type of data set: cell-based, influenza A virus.
The test system of another data set is A/WSN/33. The data set is described as follows: microbe, parasite or virus in culture. Type of data set: cell-based, influenza A virus.
The test system of the next data set is A549 cells. As to conditions: human.

With “2,5-Dichloro-N-(4-chloro-2-methylphenyl)benzamide [compound 51]”, the “activity under the assay conditions” value with WSN-PB2-Nanoluc virus was “inactive”.
For the compound `Cc1ccccc1NS(=O)(=O)c1cc(Cl)ccc1Cl` [compound 2, 2,5-Dichloro-N-(o-tolyl)benzenesulfonamide], the “antiviral activity as described in SAR text” value (“antiviral activity” below) in the data set with A/WSN/33 is reported as “substantially diminished activity”. For the same compound, the “Cytotoxicity (MTT) CC10” value in the data set with A549 cells was above 5 µM.
With `Cc1ccccc1N(C)S(=O)(=O)c1cc(Cl)ccc1Cl` [compound 3, 2,5-Dichloro-N-methyl-N-(o-tolyl)benzenesulfonamide], in the data set on A/WSN/33, the “antiviral activity” value is given as “substantially diminished activity”. Besides, the “Cytotoxicity (MTT) CC10” value with A549 cells was above 5 µM.
`C=CCN(c1ccccc1C)S(=O)(=O)c1cc(Cl)ccc1Cl` [compound 4, N-Allyl-2,5-dichloro-N-(o-tolyl)benzenesulfonamide] registered a selectivity index with A/WSN/33 above 42. The “Cytotoxicity (MTT) CC10” value in the data set on A549 cells is above 5 µM.
For the compound `C#CCN(c1ccccc1C)S(=O)(=O)c1cc(Cl)ccc1Cl` [compound 5, 2,5-Dichloro-N-(prop-2-yn-1-yl)-N-(o-tolyl)benzenesulfonamide], the selectivity index in the data set on A/WSN/33 is above 13. Moreover, the “Cytotoxicity (MTT) CC10” value with A549 cells was above 5 µM.
Regarding `Cc1ccccc1N(C(C)C)S(=O)(=O)c1cc(Cl)ccc1Cl` [compound 6, 2,5-Dichloro-N-isopropyl-N-(o-tolyl)benzenesulfonamide], in the data set on A/WSN/33, the “loss of activity compared to compound 1” value is “greater than 10 fold” and the selectivity index is recorded as above 3. Also, in the data set on A549 cells, the “Cytotoxicity (MTT) CC10” value was above 5 µM.
On to `CCN(c1ccccc1)S(=O)(=O)c1cc(Cl)ccc1Cl` [compound 7, 2,5-Dichloro-N-ethyl-N-phenylbenzenesulfonamide], for which, in the data set with A/WSN/33, the “loss of activity on removing the 2-methyl group” value is reported as “greater than 10 ×” and the selectivity index was above 6. The “Cytotoxicity (MTT) CC10” value in the data set on A549 cells is above 5 µM.
`CCN(c1ccccc1Cl)S(=O)(=O)c1cc(Cl)ccc1Cl` [compound 8, 2,5-Dichloro-N-(2-chlorophenyl)-N-ethylbenzenesulfonamide]: in the data set on A/WSN/33, the “antiviral activity” value is recorded as “less effective” and the selectivity index was above 33. Moreover, the “Cytotoxicity (MTT) CC10” value with A549 cells was above 5 µM.
For `CCN(c1ccccc1C#N)S(=O)(=O)c1cc(Cl)ccc1Cl` [compound 9, 2,5-Dichloro-N-(2-cyanophenyl)-N-ethylbenzenesulfonamide], in the data set on A/WSN/33, the “antiviral activity” value is “less effective” and the selectivity index is listed as above 29. In addition, the “Cytotoxicity (MTT) CC10” value with A549 cells was above 5 µM.
For `CCN(c1ccc(F)cc1)S(=O)(=O)c1cc(Cl)ccc1Cl` [compound 10], in the data set with A/WSN/33, the “antiviral activity” value is reported as “similarly potent” and the selectivity index is above 74. Further, the “Cytotoxicity (MTT) CC10” value with A549 cells was above 5 µM.
The like results for `CCN(c1ccc(C)cc1)S(=O)(=O)c1cc(Cl)ccc1Cl` [compound 11, 2,5-Dichloro-N-ethyl-N-(p-tolyl)benzenesulfonamide] were, in that order, “well tolerated”, above 298 and above 25 µM.
The like results for `C=CCN(c1ccc(Cl)cc1C)S(=O)(=O)c1cc(Cl)ccc1Cl` [compound 13, N-Allyl-2,5-dichloro-N-(4-chloro-2-methylphenyl)benzenesulfonamide] were, in that order, “generally more potent”, above 135 and above 5 µM.
Turning to `C#CCN(c1ccc(Cl)cc1C)S(=O)(=O)c1cc(Cl)ccc1Cl` [compound 14, 2,5-Dichloro-N-(4-chloro-2-methylphenyl)-N-(prop-2-yn-1-yl)benzenesulfonamide], in the data set on A/WSN/33, the “antiviral activity” value is listed as “generally more potent” and the selectivity index is above 42. Moreover, the “Cytotoxicity (MTT) CC10” value in the data set on A549 cells is above 5 µM.
Regarding `Cc1cc(Cl)ccc1N(CC1CC1)S(=O)(=O)c1cc(Cl)ccc1Cl` [compound 15, 2,5-Dichloro-N-(4-chloro-2-methylphenyl)-N-(cyclopropylmethyl)benzenesulfonamide], in the data set on A/WSN/33, the “less active than the N-ethyl version (12)” value is “greater than 10 ×” and the selectivity index is reported as above 10. The “Cytotoxicity (MTT) CC10” value with A549 cells was above 5 µM.
In the case of `COCCN(c1ccc(Cl)cc1C)S(=O)(=O)c1cc(Cl)ccc1Cl` [compound 16, 2,5-Dichloro-N-(4-chloro-2-methylphenyl)-N-(2-methoxyethyl)-benzenesulfonamide], in the data set with A/WSN/33, the “antiviral activity” value is “lower activity” and the selectivity index is reported as above 4. In addition, the “Cytotoxicity (MTT) CC10” value in the data set on A549 cells is above 5 µM.
Turning to `Cc1cc(Cl)ccc1N(CCO)S(=O)(=O)c1cc(Cl)ccc1Cl` [compound 17, 2,5-Dichloro-N-(4-chloro-2-methylphenyl)-N-(2-hydroxyethyl)benzenesulfonamide], the “antiviral activity” value in the data set on A/WSN/33 is reported as “lower activity”. For the same compound, the “Cytotoxicity (MTT) CC10” value in the data set on A549 cells is above 5 µM.
By IC50 is commonly meant the concentration that inhibits the measured activity by half. `Cc1cc(Cl)ccc1N(CCF)S(=O)(=O)c1cc(Cl)ccc1Cl` [compound 18, 2,5-Dichloro-N-(4-chloro-2-methylphenyl)-N-(2-fluoroethyl)-benzenesulfonamide]: in the data set on A/WSN/33, the “antiviral activity” value is “lower activity” and the selectivity index is given as above 9. The IC50 in the data set on A/WSN/33 (Influenza A virus, WSN, A549, 24 h, read-out: viral replication IC50) came out at 0.55 µM. For the same compound, in the data set on A549 cells, the “Cytotoxicity (MTT) CC10” value is above 5 µM.
Regarding `Cc1cc(Cl)ccc1N(C(F)F)S(=O)(=O)c1cc(Cl)ccc1Cl` [compound 19, 2,5-Dichloro-N-(4-chloro-2-methylphenyl)-N-(difluoromethyl)benzenesulfonamide], in the data set with A/WSN/33, the “antiviral activity” value was “lower activity” and the selectivity index is on record as above 4. Moreover, the “Cytotoxicity (MTT) CC10” value in the data set on A549 cells was above 5 µM.
Turning to `CCN(c1ccc(Cl)cc1F)S(=O)(=O)c1cc(Cl)ccc1Cl` [compound 20, 2,5-Dichloro-N-(4-chloro-2-fluorophenyl)-N-ethylbenzenesulfonamide], the selectivity index in the data set with A/WSN/33 is given as above 33. For the same compound, in the data set on A549 cells, the “Cytotoxicity (MTT) CC10” value is above 5 µM.
As for `CCN(c1c(C)cc(Cl)cc1Cl)S(=O)(=O)c1cc(Cl)ccc1Cl` [compound 22, 2,5-Dichloro-N-(2,4-dichloro-6-methylphenyl)-N-ethylbenzenesulfonamide], in the data set on A/WSN/33, the “antiviral activity” value was “less active” and the selectivity index is on record as above 13. In addition, in the data set on A549 cells, the “Cytotoxicity (MTT) CC10” value was above 5 µM.
Regarding `CCN(c1c(F)cc(Cl)cc1F)S(=O)(=O)c1cc(Cl)ccc1Cl` [compound 23, 2,5-Dichloro-N-(4-chloro-2,6-difluorophenyl)-N-ethylbenzenesulfonamide], in the data set on A/WSN/33, the “antiviral activity” value is reported as “less active” and the selectivity index was above 12.
In the data set on A/WSN/33, `CCOC(=O)Cc1ccc(N(CC)S(=O)(=O)c2cc(Cl)ccc2Cl)cc1` [compound 24, Ethyl 2-(4-((2,5-Dichloro-N-ethylphenyl)sulfonamido)phenyl)-acetate] had a selectivity index above 63. Also, in the data set with A549 cells, the “Cytotoxicity (MTT) CC10” value is above 5 µM.
Consider `CCN(c1ccc(CC(=O)O)cc1)S(=O)(=O)c1cc(Cl)ccc1Cl` [compound 25, 2-(4-((2,5-Dichloro-N-ethylphenyl)sulfonamido)phenyl)acetic Acid], for which, in the data set with A549 cells, the “Cytotoxicity (MTT) CC10” value is above 25 µM.
For `CCN(c1ccc(CCO)cc1)S(=O)(=O)c1cc(Cl)ccc1Cl` [compound 26, 2,5-Dichloro-N-ethyl-N-(4-(2-hydroxyethyl)phenyl)-benzenesulfonamide], the “Cytotoxicity (MTT) CC10” value in the data set on A549 cells is above 25 µM.
`CCN(c1ccc(CCN)cc1)S(=O)(=O)c1cc(Cl)ccc1Cl` [compound 27, N-(4-(2-Aminoethyl)phenyl)-2,5-dichloro-N-ethylbenzenesulfonamide]: the “Cytotoxicity (MTT) CC10” value in the data set with A549 cells was above 25 µM.
On to `CCN(c1ccc(CCNC(C)=O)cc1)S(=O)(=O)c1cc(Cl)ccc1Cl` [compound 28, N-(4-((2,5-Dichloro-N-ethylphenyl)sulfonamido)phenethyl)-acetamide], for which the “Cytotoxicity (MTT) CC10” value in the data set on A549 cells is above 25 µM.
Same read-out and setting: under `CCN(c1ccc(CC(=O)N2CCN(C)CC2)cc1)S(=O)(=O)c1cc(Cl)ccc1Cl` [compound 29, 2,5-Dichloro-N-ethyl-N-(4-(2-(4-methylpiperazin-1-yl)-2-oxoethyl)phenyl)benzenesulfonamide] stands above 25 µM.
As for `CCN(c1ccc(F)cc1F)S(=O)(=O)c1ccccc1` [compound 30, N-(2,4-Difluorophenyl)-N-ethylbenzenesulfonamide], the “antiviral activity” value with A/WSN/33 is “inactive”.
Same read-out and setting: then `CCN(c1ccc(F)cc1F)S(=O)(=O)c1ccccc1Cl` [compound 31, 2-Chloro-N-(2,4-difluorophenyl)-N-ethylbenzenesulfonamide], with “inactive”.
Take `CCN(c1ccc(F)cc1F)S(=O)(=O)c1cccc(Cl)c1` [compound 32, 3-Chloro-N-(2,4-difluorophenyl)-N-ethylbenzenesulfonamide]: in the data set on A/WSN/33, the “antiviral activity” value is listed as “maintained activity” and the “lower level of activity than 21” value was found to be 10 fold.
For `CCN(c1ccc(F)cc1F)S(=O)(=O)c1ccc(Cl)cc1Cl` [compound 33, 2,4-Dichloro-N-(2,4-difluorophenyl)-N-ethylbenzenesulfonamide], the “antiviral activity” value in the data set with A/WSN/33 was “inactive”.
As for `CCN(c1ccc(F)cc1F)S(=O)(=O)c1cc(Cl)cc(Cl)c1` [compound 34, 3,5-Dichloro-N-(2,4-difluorophenyl)-N-ethylbenzenesulfonamide], the “less active than 1–55” value in the data set with A/WSN/33 was above 10 fold.
With `CCN(c1ccc(F)cc1F)S(=O)(=O)c1c(Cl)cccc1Cl` [compound 35, 2,6-Dichloro-N-(2,4-difluorophenyl)-N-ethylbenzenesulfonamide], in the data set on A/WSN/33, the “antiviral activity” value is “inactive”.
`CCN(c1ccc(F)cc1F)S(=O)(=O)c1ccc(Cl)c(Cl)c1` [compound 36, 3,4-Dichloro-N-(2,4-difluorophenyl)-N-ethylbenzenesulfonamide]: in the data set on A/WSN/33, the “antiviral activity” value was “inactive”.
`CCN(c1ccc(F)cc1F)S(=O)(=O)c1cccc(Cl)c1Cl` [compound 37, 2,3-Dichloro-N-(2,4-difluorophenyl)-N-ethylbenzenesulfonamide]: the “antiviral activity” value with A/WSN/33 was “inactive”.

For the origin of these results see paper PMC8900595 (Journal of medicinal chemistry, 2021).
